Assay results published in patent publication US7268131B2, “Substituted [1,4]oxazino[2,3-g]indazoles for the treatment of glaucoma” (Alcon, Inc., priority 2003, dated 2007).
Counter-ions that a name gives are not always drawn.

How the values were obtained:
5-HT2A [1] = target: T1, 5-HT2A (Rattus norvegicus, UniProt P14842); experiment: 5-HT2 Receptor Binding Assay ([125I]DOI competition); settings: competition for [125I]DOI binding, rat or human cerebral cortex homogenates
Method: 5-HT2 Receptor Binding Assay
Aliquots of post mortem rat or human cerebral cortex homogenates (400 μL) dispersed in 50 mM Tris HCl buffer (pH 7.4) are incubated with [^125I]DOI (80 pM final) in the absence or presence of methiothepin (10 μM final) to define total and non-specific binding, respectively, in a total volume of 0.5 mL. The assay mixture is incubated for 1 hour at 23° C. in polypropylene tubes and the assays terminated by rapid vacuum filtration over Whatman GF/B glass fiber filters previously soaked in 0.3% polyethyleneimine using ice-cold buffer. Test compounds (at different concentrations) are substituted for methiothepin. Filter-bound radioactivity is determined by scintillation spectrometry on a beta counter. The data are analyzed using a non-linear, iterative curve-fitting computer program [Trends Pharmacol. Sci., 16, 413 (1995)] to determine the compound affinity parameter. The concentration of the compound needed to inhibit the [^125I]DOI binding by 50% of the maximum is termed the IC50 or Ki value.

5-HT2A [2] = target: T1, 5-HT2A; experiment: 5-HT2 functional Assay: [Ca2+]i Mobilization (FLIPR); type: cell-based; design: endogenous in cells; host or cells: A7r5 rat vascular smooth muscle cells; settings: for EC50: [Ca2+]i mobilization, A7r5 rat vascular smooth muscle cells, FLIPR; for Emax: percentage of a maximum 5-HT-induced response, A7r5 cells
Method: 5-HT2 functional Assay: [Ca^2+]i Mobilization
The receptor-mediated mobilization on intracellular calcium ([Ca^2+]i) was studied using the Fluorescence Imaging Plate Reader (FLIPR) instrument. Rat vascular smooth muscle cells, A7r5, were grown in a normal media of DMEM/10% FBS and 10 μg/mL gentamycin. Confluent cell monolayers were trypsinized, pelleted, and re-suspended in normal media. Cells were seeded in a 50 μL volume at a density of 20,000 cells/well in a black wall, 96-well tissue culture plate and grown for 2 days.
On the day of the experiment, one vial of FLIPR Calcium Assay Kit dye was re-suspended in 50 mL of a FLIPR buffer consisting of Hank's Balanced Salt Solution (HBSS), 20 mM HEPES, and 2.5 mM probenecid, pH 7.4. Cells were loaded with the calcium-sensitive dye by addition of an equal volume (50 μL) to each well of the 96-well plate and incubated with dye for 1 h at 23° C.
Typically, test compounds were stored at 25 μM in 50% DMSO/50% Ethanol solvent. Compounds were diluted 1:50 in 20% DMSO/20% Ethanol. For “hit” screening, compounds were further diluted 1:10 in FLIPR buffer and tested at a final concentration of 10 μM. For dose-response experiments, compounds were diluted 1:50 in FLIPR buffer and serially diluted 1:10 to give a 5- or 8-point dose-response curve.
The compound plate and cell plate were placed in the FLIPR instrument. At the beginning of an experimental run, a signal test was performed to check the basal fluorescence signal from the dye-loaded cells and the uniformity of the signal across the plate. The basal fluorescence was adjusted between 8000-12000 counts by modifying the exposure time, the camera F-stop, or the laser power. Instrument settings for a typical assay were the following: laser power 0.3-0.6 W, camera F-stop F/2, and exposure time 0.4 sec. An aliquot (25 μL) of the test compound was added to the existing 100 μL dye-loaded cells at a dispensing speed of 50 μL/sec. Fluorescence data were collected in real-time at 1.0 sec intervals for the first 60 secs and at 6.0 sec intervals for an additional 120 secs. Responses were measured as peak fluorescence intensity minus basal and where appropriate were expressed as a percentage of a maximum 5-HT-induced response. When the compounds were tested as antagonists against 10 μM 5-HT, they were incubated with the cells for 15 minutes prior to the addition of 5-HT.

T1 sequence (P14842 whole entry): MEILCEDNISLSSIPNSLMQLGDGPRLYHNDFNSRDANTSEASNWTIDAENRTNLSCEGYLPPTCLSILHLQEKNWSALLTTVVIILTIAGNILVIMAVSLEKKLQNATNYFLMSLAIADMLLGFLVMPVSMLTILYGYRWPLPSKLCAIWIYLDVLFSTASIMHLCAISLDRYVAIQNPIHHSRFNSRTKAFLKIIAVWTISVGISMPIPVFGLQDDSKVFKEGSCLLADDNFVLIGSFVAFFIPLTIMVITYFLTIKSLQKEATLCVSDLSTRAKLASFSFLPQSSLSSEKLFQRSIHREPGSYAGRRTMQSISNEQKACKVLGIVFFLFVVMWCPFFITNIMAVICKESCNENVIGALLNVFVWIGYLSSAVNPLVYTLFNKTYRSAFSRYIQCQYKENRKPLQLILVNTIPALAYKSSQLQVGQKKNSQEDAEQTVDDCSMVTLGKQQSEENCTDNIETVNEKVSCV

| Compound | melting point [°C] | IC50 (5-HT2A [1]) [nM] | EC50 (5-HT2A [2]) [nM] | Emax (5-HT2A [2]) [%] |
| --- | --- | --- | --- | --- |
| C[C@H](N)Cn1ncc2ccc3c(c21)NC(=O)CO3.Cl [Example 2, 1-((S)-2-Aminopropyl)-1,9-dihydro-7H-[1,4]oxazino[2,3-g]indazol-8-one hydrochloride] | 293 to 295 | 3.5 | 195 | 60 |
| C[C@H](N)Cn1ncc2ccc3c(c21)N(C)C(=O)CO3 [Example 3, 1-((S)-2-Aminopropyl)-1,9-dihydro-9-methyl-7H-[1,4]oxazino[2,3-g]indazol-8-one hydrochloride] | – | 7.6 | 550 | 41 |
| C[C@H](N)Cn1ncc2ccc3c(c21)N(C)CCO3.O=C(O)/C=C/C(=O)O [Example 1, (S)-2-(8,9-dihydro-9-methyl-7H-[1,4]oxazino[2,3-g]indazol-1-yl)-1-methylethylamine fumarate] | 185 to 187 | 1 | 20 | 82 |
